The target in this assay is T1, adenosine A2A receptor (A2AR-YFP) (Homo sapiens, UniProt P29274).
T1 construct: gene ADORA2A; Human adenosine 2A receptor fused C-terminally to EYFP
As to the kind of experiment: fluorescence correlation spectroscopy titration on single native vesicles from HEK293T cells (KD =[…] on cells). The assay is classed as binding.

Broadly, the Kd is the constant that tells how readily two partners part at equilibrium. Higher therefore signals lower affinity.

T1 sequence (P29274 whole entry, the tested form may be a part): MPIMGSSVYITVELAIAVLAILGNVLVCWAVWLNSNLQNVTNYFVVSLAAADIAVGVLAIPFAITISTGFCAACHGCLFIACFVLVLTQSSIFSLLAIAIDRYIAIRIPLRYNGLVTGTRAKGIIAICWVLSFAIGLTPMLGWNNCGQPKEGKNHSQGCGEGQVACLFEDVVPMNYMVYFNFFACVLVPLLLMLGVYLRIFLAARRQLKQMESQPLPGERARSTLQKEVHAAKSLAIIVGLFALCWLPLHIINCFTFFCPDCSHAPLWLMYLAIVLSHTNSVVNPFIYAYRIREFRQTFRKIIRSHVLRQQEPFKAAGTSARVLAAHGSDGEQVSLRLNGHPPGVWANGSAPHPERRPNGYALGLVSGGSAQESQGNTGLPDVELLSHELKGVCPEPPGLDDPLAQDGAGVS

With XAC-Atto655, the Kd was found to be 67 ± 11 nM.

The values above are taken from paper PMC3733713, “Downscaling the Analysis of Complex Transmembrane Signaling Cascades to Closed Attoliter Volumes” (PLoS ONE, 2013).
